One may read the EC50 as the concentration that produces a half-maximal response. Read a low EC50 as an effect from little substance.

Data on 12 compounds can be found in PMC7428016, “Influence of ligand’s directional configuration, chrysenes as model compounds, on the binding activity with aryl hydrocarbon receptor” (Scientific Reports, 2020).

In one series the target is T1, AhR (Rattus norvegicus, UniProt P41738).
T1 sequence (P41738 10-853): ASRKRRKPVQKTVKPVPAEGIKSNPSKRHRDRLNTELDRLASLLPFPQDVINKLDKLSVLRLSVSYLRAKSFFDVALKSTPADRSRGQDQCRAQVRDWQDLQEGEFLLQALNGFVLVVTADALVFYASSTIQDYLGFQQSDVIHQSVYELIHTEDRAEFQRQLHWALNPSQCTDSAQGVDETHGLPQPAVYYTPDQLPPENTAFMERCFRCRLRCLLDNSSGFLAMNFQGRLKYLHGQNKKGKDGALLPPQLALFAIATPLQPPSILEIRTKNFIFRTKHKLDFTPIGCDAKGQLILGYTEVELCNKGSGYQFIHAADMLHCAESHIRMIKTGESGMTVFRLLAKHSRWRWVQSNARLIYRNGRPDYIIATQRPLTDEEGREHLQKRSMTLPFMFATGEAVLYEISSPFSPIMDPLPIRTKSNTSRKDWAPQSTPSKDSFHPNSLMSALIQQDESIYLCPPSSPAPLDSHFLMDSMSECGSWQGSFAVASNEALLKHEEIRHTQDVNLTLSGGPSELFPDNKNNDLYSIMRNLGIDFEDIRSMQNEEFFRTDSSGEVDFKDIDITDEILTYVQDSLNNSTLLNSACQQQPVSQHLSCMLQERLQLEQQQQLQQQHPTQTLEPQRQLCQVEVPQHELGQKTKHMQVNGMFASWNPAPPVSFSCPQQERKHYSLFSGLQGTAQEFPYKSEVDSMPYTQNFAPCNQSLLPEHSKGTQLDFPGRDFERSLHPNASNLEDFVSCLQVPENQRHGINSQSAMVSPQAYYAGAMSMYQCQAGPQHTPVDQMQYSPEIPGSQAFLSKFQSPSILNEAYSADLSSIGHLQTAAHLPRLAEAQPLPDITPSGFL
Put plainly: H4IIE-luc transactivation bioassay (AhR-mediated potency). From the text:
H4IIE cell line derived from rat hepatoma has been reported to continuously express cytochrome P450 protein/mRNA. For this study, H4IIE cells transfected with the luciferase (Luc) reporter gene plasmid (pGudLuc1.1) were used, originally obtained from Jac Aarts, University of Wageningen, The Netherlands and further developed by John Giesy, University of Saskatchewan[44],[45]. Upon ligand binding, AhR in H4IIE-luc is activated and translocated to the nucleus, where heat shock proteins are dissociated from the complex and they form a dimer with the AhR nuclear translocator (ARNT) protein. This complex binds to specific DNA sequences with high affinity, the dioxin-responsive element (DRE). The binding to the DRE results in DNA bending transcriptional activation of adjacent responsive genes.
Acute toxic potencies of chrysene homologues were determined based on an AhR-mediated activity using H4IIE-luc cells, by the method previously reported. […] After the exposure, the activity results were expressed as relative luminescence units that were quantified using a Victor X3 multi label plate reader (PerkinElmer, Waltham, MA). Benzo[a]pyrene was used as a positive control ligand. We converted responses of the H4IIE-luc bioassay to the percentages of the maximum response (%BaPmax) observed for a 50 nM BaP (= 100%BaPmax). All bioassays were repeated four times in triplicate (Table S4 for detail information of in vitro bioassay conditions). […] Estimations of EC50 values of target compounds from the dose–response relationships were basically assumed equal efficacy and parallelism between target compounds and reference compound (benzo[a]pyrene).
Table S4. In vitro transactivation bioassay conditions for evaluating toxicities of chemical compounds.

The conditions of series [1]: Table S1, not marked as estimated; cited from earlier work.

`Oc1cccc2c1ccc1c3ccccc3ccc21` [1-hydroxychrysene] had an EC50 on AhR of 87 µM.
Still for that read-out and setting: the same measure for `Cc1cccc2c1ccc1c3ccccc3ccc21` [1-methylchrysene]: 1.9 µM; for `Cc1ccc2c(ccc3c4ccccc4ccc23)c1` [2-methylchrysene]: 0.66 µM.
In the case of `c1ccc2c(c1)cc1ccc3cccc4c5ccccc5c2c1c34` [Dibenzo[def,p]chrysene], the “Log Kow” value in series [1] is given as 7.71. This compound yielded an EC50 at AhR of 76 µM.
In the case of `c1ccc2c(c1)ccc1c2ccc2c3ccccc3ccc21` [Benzo[a]chrysene], in series [1], the “Log Kow” value was 7.11. On AhR, this compound came in with an EC50 of 20 µM.
For the compound `Oc1ccc2c(ccc3c4ccccc4ccc23)c1` [2-hydroxychrysene], it took 59 µM to reach a half-maximal effect at AhR (EC50).
Still for that read-out and setting: the same measure for `Oc1ccc2ccc3c4ccccc4ccc3c2c1` [3-hydroxychrysene]: 140 µM.
For the compound `c1ccc2c(c1)ccc1c3ccccc3ccc21` [Chrysene], the “Log Kow” value in series [1] is 5.81. The EC50 at AhR was 7.2 µM.
As for `c1ccc2c(c1)ccc1c2ccc2ccc3ccccc3c21` [Benzo[c]chrysene], the “Log Kow” value in series [1] is 7.11. In addition, on AhR, the response was half-maximal at 1.3 µM (EC50).
Take `c1ccc2c(c1)cc1ccc3c4ccccc4cc4ccc2c1c43` [Dibenzo[b,def]chrysene]: the “Log Kow” value in series [1] is listed as 7.28. The compound also showed an EC50 on AhR of 14 µM.
On to `c1ccc2cc3c(ccc4c5ccccc5ccc34)cc2c1` [Benzo[b]chrysene], for which the “Log Kow” value in series [1] was 7.11. In addition, the EC50 on AhR came out at 2.8 µM.
Compound `Cc1ccc2ccc3c4ccccc4ccc3c2c1` [3-methylchrysene] came in with an EC50 at AhR of 1.1 µM.
